Measurements as given in US6339151B1, “Enzyme catalyzed therapeutic agents” (NewBiotics, Inc., priority 1998, dated 2002).
One block for each compound: values may come before it.

Assays:
[1] = system: Primary Carcinoma (UT) breast cells; settings: 19 samples; cited from earlier work
[2] = system: Metastatic Carcinoma (UT) breast cells; settings: 4 samples; cited from earlier work
[3] = system: Metastatic Carcinoma (Rx) breast cells; settings: 10 samples; cited from earlier work
[4] = system: CCD18co (normal colon epithelium); assay: Crystal violet cell proliferation assay; assay type: cell-based, human; settings: for IC50: Homo sapiens, CCD-18Co
Method: (§1) Two cell lines, H630R10 (Copur, et al. (1995)) and normal colon epithelial cells, CCD18co (ATCC) were used in these assays. The H630P (Copur et al. (1995)) cell line was selected for resistance to 10 μM 5-FU to give rise to H630R10. The characterization of these cell lines which expresses an elevated level of the TS enzyme. A normal colon epithelial cell type CCD18co (available from the ATCC) was used for comparison with H630R10 for sensitivity to test compounds.
(§2) The ability of the test compounds to block proliferation of cells was determined by the crystal violet procedure (Sugarman et al. (1985) and Antelman et al. (1995)).
(§3) Compounds were dissolved in dimethyl sulfoxide to a concentration of 1M. They were further diluted as necessary into DMEM cell culture medium, and subsequently into the first wells of the 96 Well microtiter plate. Each concentration was tested in triplicate on the target cell line. Compound concentrations from 1 μM to 3000 μM were tested. Cells were incubated with compound for 72 hours, the plates were washed, and the cells fixed with methanol and stained with crystal violet as described in Sugarman et al. ([…]) and Antelman, et al. (1995).

[5] = system: H630R10 (colon cancer cell line); assay: Crystal violet cell proliferation assay; assay type: cell-based, human; settings: for IC50: Homo sapiens
Method: as §1, §2, §3

[6] = system: Colon Epithelium (CCD18co); assay: Alamar Blue Assay; assay type: cell-based; settings: Homo sapiens, CCD-18Co
Skin Fibroblast (DET551) = assay: Alamar Blue Assay; assay type: cell-based
Lung Epithelium (W138) = assay: Alamar Blue Assay; assay type: cell-based
Breast (MCF7) = assay: Alamar Blue Assay; assay type: cell-based; settings: Homo sapiens
Breast (MDA 468) = assay: Alamar Blue Assay; assay type: cell-based
Sarcoma (Saos 2) = assay: Alamar Blue Assay; assay type: cell-based; settings: Homo sapiens
Normal Cells = assay: Alamar Blue Assay, mean over normal cells; assay type: cell-based; settings: mean of the three normal cell types; read-out: mean IC50 (X̄)
Tumor Cells = assay: Alamar Blue Assay, mean over tumor cells; assay type: cell-based; settings: mean of the three tumor cell lines; read-out: mean IC50 (X̄)
[7] = Table 6, H630R10, 72 hours, standard error less than 20%

SMILES: COc1cccc2c1C(=O)c1c(O)c3c(c(O)c1C2=O)C[C@@](O)(C(=O)CO)C[C@@H]3O[C@H]1C[C@H](N)[C@H](O)[C@H](C)O1 [Doxorubicin, doxorubicin]
- Average IC50 [1]: 0.0114 ± 0.0068 µg/mL
- Average IC50 [2]: 0.036 ± 0.0263 µg/mL
- Average IC50 [3]: 0.0198 ± 0.0127 µg/mL

- IC50 [5, 7]: 2880 ± 54.5 µM
SMILES: O=c1[nH]c(=O)n([C@H]2C[C@H](O)[C@@H](CO)O2)cc1/C=C/Br [BVDU, (E)-5-(2-bromovinyl)-2′-deoxyuridine]
- IC50 ([4]; Table 6, CCD18co, 72 hours, standard error less than 20%): 2540 ± 58.2 µM
- activity in the proliferation assay ([5]; CCD18co and H630R10, Table 6 line 2): little activity
- difference in sensitivity of the two cell lines ([5]; CCD18co vs H630R10): no significant difference

- IC50 [5, 7]: 170 ± 2.4 µM
- IC50 ([5]; Table 7, H630R10 (colon cancer cell line), representative data from several assays, triplicate wells): 170 µM
SMILES: O=c1[nH]c(=O)n([C@H]2C[C@H](O)[C@@H](CO)O2)cc1F [Compound 5-FUdR, 5-fluoro-2′-deoxyuridine]
- IC50 ([4]; Table 7, CCD18co (normal colon epithelium), representative data from several assays, triplicate wells): 9.5 µM
- fold more sensitive CCD18co than H630-R10 ([4]; normal colon epithelial CCD18co vs H630-R10 colon tumor cells): approximately 18 fold

- IC50 (Breast (MCF7)): 0.61 µM
- IC50 (Sarcoma (Saos 2)): 11.3 µM
- IC50 (Tumor Cells): 4.1 µM
SMILES: O=c1[nH]cc(F)c(=O)[nH]1 [5-Fluorouracil, 5-fluorouracil]
- IC50 [6]: 0.2 µM
- IC50 (Skin Fibroblast (DET551)): 1.1 µM
- IC50 (Lung Epithelium (W138)): 0.4 µM
- IC50 (Breast (MDA 468)): 0.4 µM
- IC50 (Normal Cells): 0.57 µM
